A word on the IC50: it is the midpoint of a concentration-inhibition curve.

Molecules are shown by their SMILES.

The target of the assay is PDE1A (Homo sapiens, UniProt P54750). Description: PDE1A dose response, Cyclic Nucleotide Phosphodiesterase Assay Kit from Biomol (colorimetric). To be noted: purified PDE1A enzyme, 100 μM cAMP. The format is biochemical. In outline: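 Purified PDE1A hydrolysed 100 μM cAMP with 5′-nucleotidase in Tris 20 mM pH 7.4 with calmodulin, Ca2+, Mg2+, 45 min at 37° C. Released phosphate read by malachite-green absorbance at 615 nm. Duplicate 8-point 1/3 dilutions from 20 μM, 1% DMSO; 10 μM vardenafil defined 100% inhibition.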
On to `CC(C)(C)n1ncc2c(=O)[nH]c(C3CN(c4nc5cc(C(F)(F)F)ccc5[nH]4)C3)nc21` [Example 127, 1-tert-butyl-6-(1-(5-(trifluoromethyl)-1H-benzo[d]imidazol-2-yl)azetidin-3-yl)-1H-pyrazolo[3,4-d]pyrimidin-4(5H)-one], for which the IC50 fell in the range of 1 to 100 nM.

As to `CC(C)(C)n1ncc2c(=O)[nH]c(C3CN(c4nc5ccccc5[nH]4)C3)nc21` [Example 128, 6-(1-(1H-benzo[d]imidazol-2-yl)azetidin-3-yl)-1-tert-butyl-1H-pyrazolo[3,4-d]pyrimidin-4(5H)-one], the half-inhibitory concentration (IC50) was in the range of 1 to 100 nM.

`O=c1[nH]c(C2CN(c3nc4ccccc4s3)C2)nc2c1cnn2C1CCCCC1` [Example 129, 6-(1-(benzo[d]thiazol-2-yl)azetidin-3-yl)-1-cyclohexyl-1H-pyrazolo[3,4-d]pyrimidin-4(5H)-one]: the concentration for half-maximal inhibition (IC50) is 101 to 500 nM.

`O=c1[nH]c(C2CN(c3nc4ccccc4o3)C2)nc2c1cnn2C1CCCCC1` [Example 130, 6-(1-(benzo[d]oxazol-2-yl)azetidin-3-yl)-1-cyclohexyl-1H-pyrazolo[3,4-d]pyrimidin-4(5H)-one]: the IC50 lay within 101 to 500 nM.

`Cn1c(N2CC(c3nc4c(cnn4C4CCCCC4)c(=O)[nH]3)C2)nc2ccccc21` [Example 131, 1-cyclohexyl-6-(1-(1-methyl-1H-benzo[d]imidazol-2-yl)azetidin-3-yl)-1H-pyrazolo[3,4-d]pyrimidin-4(5H)-one]: the IC50 was 501 to 1000 nM.

As to `O=c1[nH]c(C2CN(c3nc(-c4ccccc4)co3)C2)nc2c1cnn2C1CCCCC1` [Example 132, 1-cyclohexyl-6-(1-(4-phenyloxazol-2-yl)azetidin-3-yl)-1H-pyrazolo[3,4-d]pyrimidin-4(5H)-one], the concentration for half-maximal inhibition (IC50) was in the range of 1 to 100 nM.

The compound `O=c1[nH]c(C2CN(c3nnc(-c4ccccc4)o3)C2)nc2c1cnn2C1CCCCC1` [Example 133, 1-cyclohexyl-6-(1-(5-phenyl-1,3,4-oxadiazol-2-yl)azetidin-3-yl)-1H-pyrazolo[3,4-d]pyrimidin-4(5H)-one] displayed an IC50 of 101 to 500 nM.

Turning to `O=c1[nH]c(C2CN(c3ncc(CN4CCOCC4)s3)C2)nc2c1cnn2C1CCCCC1` [Example 134, 1-cyclohexyl-6-(1-(5-(morpholinomethyl)thiazol-2-yl)azetidin-3-yl)-1H-pyrazolo[3,4-d]pyrimidin-4(5H)-one], the IC50 is 101 to 500 nM.

Take `O=c1[nH]c(C2CN(c3ncc(CN4CCCCC4)s3)C2)nc2c1cnn2C1CCCCC1` [Example 135, 1-cyclohexyl-6-(1-(5-(piperidin-1-ylmethyl)thiazol-2-yl)azetidin-3-yl)-1H-pyrazolo[3,4-d]pyrimidin-4(5H)-one]: the IC50 lay in the range of 101 to 500 nM.

`O=c1[nH]c(C2CN(c3ncc(-c4ccccc4)o3)C2)nc2c1cnn2C1CCCCC1` [Example 136, 1-cyclohexyl-6-(1-(5-phenyloxazol-2-yl)azetidin-3-yl)-1H-pyrazolo[3,4-d]pyrimidin-4(5H)-one]: the half-inhibitory concentration (IC50) fell in the range of 101 to 500 nM.

The compound `CN1CCN(Cc2cnc(N3CC(c4nc5c(cnn5C5CCCCC5)c(=O)[nH]4)C3)s2)CC1` [Example 137, 1-cyclohexyl-6-(1-(5-((4-methylpiperazin-1-yl)methyl)thiazol-2-yl)azetidin-3-yl)-1H-pyrazolo[3,4-d]pyrimidin-4(5H)-one] gave an IC50 of 101 to 500 nM.

Compound `O=c1[nH]c(C2CN(c3ncc(CN4CCCCCC4)s3)C2)nc2c1cnn2C1CCCCC1` [Example 138, 6-(1-(5-(azepan-1-ylmethyl)thiazol-2-yl)azetidin-3-yl)-1-cyclohexyl-1H-pyrazolo[3,4-d]pyrimidin-4(5H)-one] returned an IC50 of 101 to 500 nM.

Compound `Cc1nn(C(C)(C)C)c2nc(C3CN(c4nnnn4-c4ccccc4)C3)[nH]c(=O)c12` [Example 139, 1-tert-butyl-3-methyl-6-(1-(1-phenyl-1H-tetrazol-5-yl)azetidin-3-yl)-1H-pyrazolo[3,4-d]pyrimidin-4(5H)-one] displayed an IC50 of 101 to 500 nM.
